# In US20160002247A1, “8-SUBSTITUTED IMIDAZOPYRIMIDINONE DERIVATIVE HAVING AUTOTAXIN INHIBITORY ACTIVITY” (THE UNIVERSITY OF TOKYO, priority 2013, published 2016):
# Target: T1, Human autotaxin enzyme (Homo sapiens, UniProt Q13822)
# T1 construct: purchased R&D System
# Test: Evaluation of autotaxin inhibitor, Method B (Test Example 2): TG-mTMP fluorescence
# Format: biochemical
# Details: Assay Method B (Test Example 2), human autotaxin; read-out: Inhibitory Activity (autotaxin enzyme inhibitory activity, IC50 class)
# Description: (Method B) Evaluation of Autotaxin Inhibitor
# Solution A containing 25 mM Tris-HCl buffer (pH7.5), 100 mM NaCl, 5 mM MgCl2 and 0.1% BSA was prepared. Human autotaxin enzyme (purchased from R&D System) was diluted with Solution A, and 5 μL of which was added to a solution of test compound in DMSO. Furthermore, 5 μl of 0.5 μM TG-mTMP in Solution A was added and allowed to react at room temperature for 2 hours. 5 μl of 150 mM EDTA in Solution A was added to quench the reaction, and the fluorescent dye TokyoGreen, which was produced by the reaction, was detected. The fluorescence was detected using ViewLux (PerkinElmer, Inc.) with an excitation wavelength of 480 nm and a fluorescence wavelength of 540 nm.
row,IC50 [nM],SMILES
1,10 to 100,CCC(CC)Cn1c(C)cc(=O)n2cc(-c3ccc(Cl)cc3)nc12 [Compound 87]
2,100 to 1000,Cc1cc(=O)n2cc(-c3ccc(Cl)cc3)nc2n1Cc1ccc(-c2ccccc2)cc1 [Compound 88]
3,< 10,Cc1cc(=O)n2cc(-c3ccc(Cl)cc3)nc2n1Cc1ccc(OCCCN(C)C)cc1 [Compound 89]
4,10 to 100,Cc1cc(=O)n2cc(-c3ccc(Cl)cc3)nc2n1Cc1ccc(Cl)cc1F [Compound 90]
5,10 to 100,Cc1cc(=O)n2cc(-c3ccc(Cl)cc3)nc2n1Cc1ccc(-c2ncccn2)cc1 [Compound 91]
6,10 to 100,Cc1cncc(Oc2ccc(Cn3c(C)cc(=O)n4cc(-c5ccc(Cl)cc5)nc34)cc2)n1 [Compound 92]
7,> 1000,Cc1cc(=O)n2cc(-c3ccc(Cl)cc3)nc2n1Cc1ccc(Oc2ccccc2)cc1 [Compound 93]
8,10 to 100,Cc1cc(=O)n2cc(-c3ccc(Cl)cc3)nc2n1CCCCF [Compound 94]
9,10 to 100,Cc1cc(=O)n2cc(-c3ccc(Cl)cc3)nc2n1Cc1ccc(C(C)C)cc1 [Compound 95]
10,100 to 1000,Cc1cc(=O)n2cc(-c3ccc(Cl)cc3)nc2n1Cc1cccc(OCC(=O)O)c1 [Compound 96]
11,10 to 100,Cc1cc(=O)n2cc(-c3ccc(Cl)cc3)nc2n1Cc1ccc(Br)cc1F [Compound 97]
12,100 to 1000,Cc1cc(=O)n2cc(-c3ccc(Cl)cc3)nc2n1Cc1ccc(C(=O)O)cc1 [Compound 99]
13,10 to 100,Cc1cc(=O)n2cc(-c3ccc(Cl)cc3)nc2n1C(C)c1cccc(F)c1 (stereo not drawn) [Compound 100]
14,10 to 100,Cc1cc(=O)n2cc(-c3ccc(Cl)cc3)nc2n1Cc1ccc(F)cc1F [Compound 101]
15,100 to 1000,Cc1cc(=O)n2cc(-c3ccc(Cl)cc3)nc2n1Cc1ccc2ccccc2c1 [Compound 102]
16,10 to 100,COC(=O)c1ccc(Cn2c(C)cc(=O)n3cc(-c4ccc(Cl)cc4)nc23)cc1 [Compound 103]
17,10 to 100,Cc1cc(=O)n2cc(-c3ccc(Cl)cc3)nc2n1Cc1ccc(Cl)c(Cl)c1 [Compound 104]
18,10 to 100,Cc1cc(=O)n2cc(-c3ccc(Cl)cc3)nc2n1Cc1ccc(S(C)(=O)=O)cc1 [Compound 105]
19,10 to 100,Cc1cc(=O)n2cc(-c3ccc(Cl)cc3)nc2n1CCCC#N [Compound 106]
20,100 to 1000,Cc1cc(=O)n2cc(-c3ccc(Cl)cc3)nc2n1CC1CCCO1 (stereo not drawn) [Compound 107]

row,IC50 [nM],SMILES
1,10 to 100,Cc1cc(=O)n2cc(-c3ccc(Cl)cc3)nc2n1C(C)c1cccc(C(F)(F)F)c1 (stereo not drawn) [Compound 108]
2,100 to 1000,Cc1cc(=O)n2cc(-c3ccc(Cl)cc3)nc2n1Cc1ccncc1 [Compound 109]
3,10 to 100,Cc1cc(=O)n2cc(-c3ccc(Cl)cc3)nc2n1Cc1ccc(C(N)=O)cc1 [Compound 110]
4,100 to 1000,Cc1cc(=O)n2cc(-c3ccc(Cl)cc3)nc2n1Cc1ccc(C(=O)c2ccccc2)cc1 [Compound 111]
5,10 to 100,COC(=O)Cc1ccc(Cn2c(C)cc(=O)n3cc(-c4ccc(Cl)cc4)nc23)cc1 [Compound 112]
6,10 to 100,Cc1cc(=O)n2cc(-c3ccc(Cl)cc3)nc2n1Cc1ccc(S(=O)(=O)C(F)F)cc1 [Compound 113]
7,10 to 100,Cc1cc(=O)n2cc(-c3ccc(Cl)cc3)nc2n1Cc1ccccn1 [Compound 114]
8,10 to 100,Cc1cc(=O)n2cc(-c3ccc(Cl)cc3)nc2n1Cc1cccc(C(F)(F)F)c1 [Compound 115]
9,100 to 1000,Cc1cc(=O)n2cc(-c3ccc(Cl)cc3)nc2n1Cc1ccc(C(F)(F)F)cc1 [Compound 116]
10,10 to 100,Cc1cc(=O)n2cc(-c3ccc(Cl)cc3)nc2n1Cc1cccnc1 [Compound 117]
11,100 to 1000,Cc1cc(=O)n2cc(-c3ccc(Cl)cc3)nc2n1CC1CCOC1 (stereo not drawn) [Compound 118]
12,> 1000,Cc1cc(=O)n2cc(-c3ccc(Cl)cc3)nc2n1Cc1ccc(COc2ccccc2)cc1 [Compound 120]
13,10 to 100,Cc1cc(=O)n2cc(-c3ccc(Cl)cc3)nc2n1Cc1cccc(F)c1 [Compound 121]
14,100 to 1000,Cc1cc(=O)n2cc(-c3ccc(Cl)cc3)nc2n1Cc1ccc(OC(F)(F)F)cc1 [Compound 122]
15,100 to 1000,Cc1cc(=O)n2cc(-c3ccc(Cl)cc3)nc2n1Cc1ccc(C(C)(C)C)cc1 [Compound 123]
16,10 to 100,COCCCCn1c(C)cc(=O)n2cc(-c3ccc(Cl)cc3)nc12 [Compound 124]
17,> 1000,CCCc1cn2c(=O)ccn(CCc3ccc(Cl)cc3)c2n1 [Compound 128]
18,> 1000,CCCc1cn2c(=O)ccn(CCCc3ccc(Cl)cc3)c2n1 [Compound 129]
19,100 to 1000,CCCCCn1c(C)cc(=O)n2cc(-c3ccccc3)nc12 [Compound 138]
20,100 to 1000,CCCCCn1c(C)cc(=O)n2cc(C3CCCCC3)nc12 [Compound 139]

row,IC50 [nM],SMILES
1,100 to 1000,CCCCCn1c(C)cc(=O)n2cc(-c3coc4ccccc34)nc12 [Compound 140]
2,10 to 100,CCCCCn1c(C)cc(=O)n2cc(-c3ccc(Oc4ccccc4)cc3)nc12 [Compound 141]
3,10 to 100,CCCCCn1c(C)cc(=O)n2cc(-c3cc4ccccc4s3)nc12 [Compound 142]
4,100 to 1000,CCCCCn1c(C)cc(=O)n2cc(-c3cc4ccccc4o3)nc12 [Compound 143]
5,100 to 1000,CCCCCn1c(C)cc(=O)n2cc(-c3ccsc3)nc12 [Compound 144]
6,> 1000,CCCCCn1c(C)cc(=O)n2cc(-c3ccc(C4CCCCC4)cc3)nc12 [Compound 145]
7,100 to 1000,CCCCCn1c(C)cc(=O)n2cc(-c3ccc4occc4c3)nc12 [Compound 146]
8,> 1000,CCCCCn1c(C)cc(=O)n2cc(-c3cccc(Cl)c3)nc12 [Compound 147]
9,> 1000,CCCCCn1c(C)cc(=O)n2cc(-c3ccc(N4CCCC4=O)cc3)nc12 [Compound 148]
10,100 to 1000,CCCCCn1c(C)cc(=O)n2cc(-c3ccc4c(c3)CCO4)nc12 [Compound 149]
11,100 to 1000,CCCCCn1c(C)cc(=O)n2cc(-c3ccc4c(c3)CCC4)nc12 [Compound 150]
12,> 1000,CCCCCn1c(C)cc(=O)n2cc(-c3ccc(C(=O)OCC)cc3)nc12 [Compound 151]
13,10 to 100,CCCCCn1c(C)cc(=O)n2cc(-c3ccc(OC)cc3)nc12 [Compound 152]
14,> 1000,CCCCCn1c(C)cc(=O)n2cc(-c3ccc4ccccc4c3)nc12 [Compound 153]
15,10 to 100,CCCCCn1c(C)cc(=O)n2cc(-c3ccc(C)cc3C)nc12 [Compound 154]
16,10 to 100,CCCCCn1c(C)cc(=O)n2cc(-c3ccc(OC(F)F)cc3)nc12 [Compound 155]
17,< 10,CCCCCn1c(C)cc(=O)n2cc(-c3ccc(OC(F)(F)F)cc3)nc12 [Compound 156]
18,< 10,CCCCCn1c(C)cc(=O)n2cc(-c3ccc(C#N)cc3)nc12 [Compound 157]

# Same assay, conditions: Assay Method: Method B (Test Example 2); read-out: Inhibitory Activity (Enzyme Inhibitory Activity, IC50)
row,IC50 [nM],SMILES
1,10 to 100,Cc1cc(=O)n2cc(-c3ccc(Cl)cc3)nc2n1CCc1ccccc1 [Compound 82]
2,10 to 100,Cc1cc(=O)n2cc(-c3ccc(Cl)cc3)nc2n1C1CCC1 [Compound 83]
3,< 10,CCCC(Cn1c(C)cc(=O)n2cc(-c3ccc(Cl)cc3)nc12)OS(C)(=O)=O (stereo not drawn) [Compound 84]
4,< 10,Cc1cc(=O)n2cc(-c3ccc(Cl)cc3)nc2n1Cc1ccc(OCCN2CCCC2)cc1 [Compound 85]
5,100 to 1000,CCOC(=O)c1ccc(Cn2c(C)cc(=O)n3cc(-c4ccc(Cl)cc4)nc23)cc1 [Compound 86]
